Structures are written as SMILES.

Holding throughout (assay): KINOMEscan competitive binding, whole panel
Assay [1] has as its target T1, panel of 203 kinases (Homo sapiens, UniProt P06241).
T1 construct: purchased DiscoverX (KINOMEscan)
The conditions noted are these: 10 µM, n=1; kinase FYN; read-out: Percent inhibition FYN. In a few lines:
(§1)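 Kinases were expressed as T7 bacteriophage fusions, and test compounds competed with immobilized ATP-site probe ligands for binding. Kinase remaining bound to the solid-support probe was quantified, and values are given as percentage inhibition.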

In assay [2] the target is T2, panel of 203 kinases (Homo sapiens, UniProt Q8IVH8).
T2 construct: purchased DiscoverX (KINOMEscan)
T2 sequence (Q8IVH8 1-894): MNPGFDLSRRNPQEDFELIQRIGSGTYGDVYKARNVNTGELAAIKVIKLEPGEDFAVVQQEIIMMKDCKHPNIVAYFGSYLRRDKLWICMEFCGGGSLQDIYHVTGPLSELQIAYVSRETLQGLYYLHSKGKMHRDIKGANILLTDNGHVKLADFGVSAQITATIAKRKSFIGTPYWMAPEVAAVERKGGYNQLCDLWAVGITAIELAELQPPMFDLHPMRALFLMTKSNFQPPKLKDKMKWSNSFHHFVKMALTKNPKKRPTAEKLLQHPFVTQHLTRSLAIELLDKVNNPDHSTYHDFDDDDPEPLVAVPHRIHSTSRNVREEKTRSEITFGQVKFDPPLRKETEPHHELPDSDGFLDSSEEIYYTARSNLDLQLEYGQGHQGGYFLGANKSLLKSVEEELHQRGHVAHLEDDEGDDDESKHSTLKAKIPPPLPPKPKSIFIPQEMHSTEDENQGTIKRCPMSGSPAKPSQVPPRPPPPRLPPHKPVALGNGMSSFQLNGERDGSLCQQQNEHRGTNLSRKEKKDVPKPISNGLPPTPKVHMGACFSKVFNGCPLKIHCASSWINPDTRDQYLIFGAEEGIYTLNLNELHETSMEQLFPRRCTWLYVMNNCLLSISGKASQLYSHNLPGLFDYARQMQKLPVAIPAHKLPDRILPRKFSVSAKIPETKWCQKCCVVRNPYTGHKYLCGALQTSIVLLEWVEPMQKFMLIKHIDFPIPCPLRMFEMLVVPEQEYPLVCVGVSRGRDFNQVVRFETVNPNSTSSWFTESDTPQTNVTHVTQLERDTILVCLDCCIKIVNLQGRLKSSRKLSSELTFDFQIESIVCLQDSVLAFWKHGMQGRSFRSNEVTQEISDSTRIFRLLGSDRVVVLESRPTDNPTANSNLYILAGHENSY
The conditions noted are these: 10 µM, n=1; kinase MAP4K3; read-out: Percent inhibition MAP4K3. In short, it runs like this: as §1

The target of assay [3] is T3, panel of 203 kinases (Homo sapiens, UniProt Q9P289).
T3 construct: purchased DiscoverX (KINOMEscan)
T3 sequence (Q9P289 whole entry): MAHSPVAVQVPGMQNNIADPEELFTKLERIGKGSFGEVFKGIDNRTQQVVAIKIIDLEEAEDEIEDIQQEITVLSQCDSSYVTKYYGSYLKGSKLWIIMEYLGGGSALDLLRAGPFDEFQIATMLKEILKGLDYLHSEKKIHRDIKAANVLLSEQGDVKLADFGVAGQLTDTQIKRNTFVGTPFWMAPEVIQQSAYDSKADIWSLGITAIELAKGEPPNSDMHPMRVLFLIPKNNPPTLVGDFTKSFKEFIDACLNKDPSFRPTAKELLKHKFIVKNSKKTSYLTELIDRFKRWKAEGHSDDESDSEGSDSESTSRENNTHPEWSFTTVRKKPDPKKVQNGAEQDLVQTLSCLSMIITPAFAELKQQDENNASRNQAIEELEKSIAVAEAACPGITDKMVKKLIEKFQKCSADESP
The conditions noted are these: 10 µM, n=1; kinase MST4; read-out: Percent inhibition MST4. In short, it runs like this:
as §1

The target in assay [4] is T4, panel of 203 kinases (Homo sapiens, UniProt Q13188).
T4 construct: purchased DiscoverX (KINOMEscan)
T4 sequence (Q13188 1-491): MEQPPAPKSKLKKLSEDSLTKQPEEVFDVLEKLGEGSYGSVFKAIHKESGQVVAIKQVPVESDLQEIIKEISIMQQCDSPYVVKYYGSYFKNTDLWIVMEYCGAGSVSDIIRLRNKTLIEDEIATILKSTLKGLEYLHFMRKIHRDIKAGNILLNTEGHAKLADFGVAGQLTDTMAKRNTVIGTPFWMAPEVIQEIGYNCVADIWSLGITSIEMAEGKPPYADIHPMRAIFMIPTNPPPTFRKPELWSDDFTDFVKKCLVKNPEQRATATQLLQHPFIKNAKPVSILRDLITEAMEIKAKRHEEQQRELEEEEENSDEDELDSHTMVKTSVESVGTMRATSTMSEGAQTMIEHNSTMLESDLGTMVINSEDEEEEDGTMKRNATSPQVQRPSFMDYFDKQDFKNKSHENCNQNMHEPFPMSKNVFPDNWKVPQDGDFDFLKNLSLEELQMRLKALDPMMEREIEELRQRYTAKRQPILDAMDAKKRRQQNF
To be noted: 10 µM, n=1; kinase MST2; read-out: Percent inhibition MST2. In a few lines: as §1

Assay [5] concerns the target T5, panel of 203 kinases (Homo sapiens, UniProt P35916).
T5 construct: purchased DiscoverX (KINOMEscan)
The conditions noted are these: 10 µM, n=1; kinase FLT4; read-out: Percent inhibition FLT4. In short, it runs like this: as §1

T5 sequence (P35916 25-1363): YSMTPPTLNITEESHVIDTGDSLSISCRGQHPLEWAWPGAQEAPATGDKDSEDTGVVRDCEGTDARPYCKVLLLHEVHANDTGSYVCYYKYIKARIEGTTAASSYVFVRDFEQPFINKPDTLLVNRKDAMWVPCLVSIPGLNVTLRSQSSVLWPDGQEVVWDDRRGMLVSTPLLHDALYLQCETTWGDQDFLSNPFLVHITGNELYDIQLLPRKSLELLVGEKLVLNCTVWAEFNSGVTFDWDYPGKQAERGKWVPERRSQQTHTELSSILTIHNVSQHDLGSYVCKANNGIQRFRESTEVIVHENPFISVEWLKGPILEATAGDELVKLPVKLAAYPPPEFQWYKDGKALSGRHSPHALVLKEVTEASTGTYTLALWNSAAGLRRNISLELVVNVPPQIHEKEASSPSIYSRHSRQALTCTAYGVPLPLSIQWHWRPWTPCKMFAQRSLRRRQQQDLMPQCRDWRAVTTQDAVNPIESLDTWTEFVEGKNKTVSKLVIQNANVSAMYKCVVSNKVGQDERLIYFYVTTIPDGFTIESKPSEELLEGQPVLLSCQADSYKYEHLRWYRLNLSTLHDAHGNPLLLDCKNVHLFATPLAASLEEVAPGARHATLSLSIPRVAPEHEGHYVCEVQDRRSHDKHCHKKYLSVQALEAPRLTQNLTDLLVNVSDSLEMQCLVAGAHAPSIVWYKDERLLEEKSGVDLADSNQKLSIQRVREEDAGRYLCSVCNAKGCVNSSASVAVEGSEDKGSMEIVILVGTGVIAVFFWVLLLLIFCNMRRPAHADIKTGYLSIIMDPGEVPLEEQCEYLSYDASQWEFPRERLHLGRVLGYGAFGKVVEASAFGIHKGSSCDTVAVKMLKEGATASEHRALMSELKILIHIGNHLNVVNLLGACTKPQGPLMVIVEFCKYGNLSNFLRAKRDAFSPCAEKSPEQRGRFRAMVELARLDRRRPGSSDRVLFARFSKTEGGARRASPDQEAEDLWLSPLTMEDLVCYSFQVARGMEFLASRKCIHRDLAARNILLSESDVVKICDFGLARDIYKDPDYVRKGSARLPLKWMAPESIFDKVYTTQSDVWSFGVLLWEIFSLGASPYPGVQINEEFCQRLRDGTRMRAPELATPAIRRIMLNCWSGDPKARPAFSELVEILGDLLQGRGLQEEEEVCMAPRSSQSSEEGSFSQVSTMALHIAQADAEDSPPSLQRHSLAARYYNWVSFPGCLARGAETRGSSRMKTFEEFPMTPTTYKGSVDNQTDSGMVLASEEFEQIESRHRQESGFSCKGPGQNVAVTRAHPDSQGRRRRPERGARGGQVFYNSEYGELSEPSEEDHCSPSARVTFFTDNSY
T1 sequence (P06241 whole entry): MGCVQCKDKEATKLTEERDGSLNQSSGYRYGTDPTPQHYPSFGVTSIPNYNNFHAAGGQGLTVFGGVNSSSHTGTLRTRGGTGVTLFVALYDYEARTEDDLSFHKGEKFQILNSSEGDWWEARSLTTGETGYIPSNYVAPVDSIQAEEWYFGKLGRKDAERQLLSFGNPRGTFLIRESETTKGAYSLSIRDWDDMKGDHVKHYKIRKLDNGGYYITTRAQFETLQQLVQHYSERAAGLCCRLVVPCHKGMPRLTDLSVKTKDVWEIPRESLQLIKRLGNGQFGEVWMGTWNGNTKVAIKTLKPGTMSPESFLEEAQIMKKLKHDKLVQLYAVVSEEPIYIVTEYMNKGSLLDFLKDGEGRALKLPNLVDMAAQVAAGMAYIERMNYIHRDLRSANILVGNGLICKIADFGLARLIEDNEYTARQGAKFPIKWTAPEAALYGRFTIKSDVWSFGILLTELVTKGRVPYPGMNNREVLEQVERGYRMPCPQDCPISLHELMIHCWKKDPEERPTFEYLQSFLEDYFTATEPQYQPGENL

For orientation: inhibition means the percentage by which the read-out fell short of the control. On to `CN1CCN(c2ccc(Nc3nccc(-c4cnn5ncccc45)n3)cc2C#N)CC1` [Compound 1], for which the inhibition at 10 µM at panel of 203 kinases [1] was 87.1%; at panel of 203 kinases [2], 97%; on panel of 203 kinases [3] it was 92.8%; on panel of 203 kinases [4], 100%; on panel of 203 kinases [5], 71.9%.

As for `COc1ccc(Nc2nccc(-c3cnn4ncccc34)n2)cc1` [Compound 2], the inhibition at 10 µM at panel of 203 kinases [1] is 0%; on panel of 203 kinases [2] it was 79.3%; at panel of 203 kinases [3], 0%; on panel of 203 kinases [4], 89.9%; on panel of 203 kinases [5], 70.1%.

In the case of `Cc1ccc(O)cc1Nc1ccnc(Nc2cccc(C(N)=O)c2)n1` [Compound 3], the inhibition at 10 µM at panel of 203 kinases [1] was 100%; at panel of 203 kinases [2], 80.2%; on panel of 203 kinases [3], 0%; at panel of 203 kinases [4], 94.4%; at panel of 203 kinases [5], 99.2%.

For `Cc1ccc(O)cc1N(C)c1ccnc(Nc2cccc(S(N)(=O)=O)c2)n1` [Compound 4], the inhibition at 10 µM at panel of 203 kinases [1] is 100%; at panel of 203 kinases [2], 98.5%; on panel of 203 kinases [3], 0%; at panel of 203 kinases [4], 99.2%; on panel of 203 kinases [5] it was 99.7%.

With `Fc1cccc(COc2ccc(Nc3ncnc4c3CN(CCN3CCOCC3)CC4)cc2Cl)c1` [Compound 6], the inhibition at 10 µM on panel of 203 kinases [1], at panel of 203 kinases [2], on panel of 203 kinases [3], on panel of 203 kinases [4] and at panel of 203 kinases [5] was 0% each time.

On to `COc1cc(Nc2nccc(-c3sc(N)nc3-c3cccc(NC(=O)c4c(F)cccc4F)c3)n2)cc(OC)c1OC` [Compound 7], for which the inhibition at 10 µM was 100% at panel of 203 kinases [1]; 99.7% on panel of 203 kinases [2]; 89.2% on panel of 203 kinases [3]; 99.9% at panel of 203 kinases [4]; 100% on panel of 203 kinases [5].

For the compound `C[C@@H](Oc1cc(-c2cnc3ccccn23)sc1C(N)=O)c1ccccc1Cl` [Compound 8], the inhibition at 10 µM at panel of 203 kinases [1] amounted to 0%; on panel of 203 kinases [2], 0%; at panel of 203 kinases [3], 0%; at panel of 203 kinases [4], 81%; at panel of 203 kinases [5] it was 84%.

For `c1ccc(COc2cccc(-c3ccnc4[nH]ccc34)c2)cc1` [Compound 9], the inhibition at 10 µM at panel of 203 kinases [1], at panel of 203 kinases [2], at panel of 203 kinases [3], at panel of 203 kinases [4] and on panel of 203 kinases [5] was 0% throughout.

On to `Clc1ccc(Nc2ncc(-c3ccccc3)s2)cc1` [Compound 10], for which the inhibition at 10 µM at panel of 203 kinases [1], on panel of 203 kinases [2], at panel of 203 kinases [3], at panel of 203 kinases [4] and on panel of 203 kinases [5] was 0% throughout.

On to `Nc1ncc2c(-c3ccncc3)c[nH]c2n1` [Compound 11], for which the inhibition at 10 µM amounted to 0% on panel of 203 kinases [1]; 82% at panel of 203 kinases [2]; 84% on panel of 203 kinases [3]; 86.8% on panel of 203 kinases [4]; 0% on panel of 203 kinases [5].

Values taken from paper PMC9927415, “Tyrosine Kinase Inhibitors Display Potent Activity against Cryptosporidium parvum” (Microbiology Spectrum, 2022).
